Test results reported in publication PMC9805685, “Isolation, bioassay and 3D-QSAR analysis of 8-isopentenyl flavonoids from Epimedium sagittatum maxim. as PDE5A inhibitors” (Chinese Medicine, 2022).
Where “and” joins values, the source holds several entries; their conditions need not be identical. Identical values can stand only once. Like-named read-outs stand apart in the source and are kept apart here.

How the values were obtained:
PDE5A1 [1] = target: T1, PDE5A1 (Homo sapiens, UniProt O76074); assay: PDE5A1 inhibition assay, enzyme reaction with HPLC detection of cGMP; format: biochemical; conditions: 0.15 µg/mL PDE5A1, 7.5 µg/mL cGMP, 90 min at 35 ℃
Protocol: 50 μL analytes were injected and separated on the C18 5 μm column with a flow rate of 1 mL/min at 30 °C column temperature. The mobile phase consisted of methanol and 0.05 mol/L potassium dihydrogen phosphate (10:90, V/V).
All components for assay were diluted in assay buffer which contained 100 mM MgCl2 and 50 mM Tris–HCl (pH 8.0). The compounds were dissolved in DMSO and then further diluted to the desired concentration with assay buffer. 30 μL PDE5A1 solution and 30 μL compound solution were mixed at room temperature and incubated for 5 min, followed by addition of with 30 μL cGMP solution, and the reaction was carried out at 35 °C for 90 min. After the assay, each vial was incubated in 100 °C boiling water for 5 min to inactivate the PDE5A1 activity, and then was cooled to be detected with HPLC. No PDE5A1 was used as the positive control, and DMSO was used as the negative control. Percentage inhibition was calculated using the peak area of HPLC with the following formula.
For dose–response experiments, the PDE5A1 inhibitors were diluted to 7 concentrations series with fourfold gradient. Two individual operations were performed on different dates as the repetition.
For developing the screening method for PDE5A1 inhibitors, the in vitro enzyme reaction and HPLC detection were combined. […] The concentrations of enzyme and substrate are important parameters in the inhibitor screening assay.

PDE5A1 [2] = target: T1, PDE5A1; assay: CoMFA 3D-QSAR model prediction of PDE5A1 activity; conditions: EA minus PA
Protocol: (§1) All molecular modeling and calculations were performed by the Sybyl program package. The structures of all compounds were constructed using the Sketch Molecule module. Structural energy minimization was carried out using the standard Tripos molecular mechanics force field and Gasteiger-Huckle charge, with the convergence criterion set at 0.005 kcal/(Å·mol) and the max iterations for the minimization set to 10,000.
The 3D cubic lattice region was created automatically and the grid spacing was set at 1.7 Å in the x, y, and z directions. A sp^3 carbon atom with + 1 net charge was taken as the probe atom and steric and electrostatic interactions were calculated by using the Tripos force field. A cutoff of 30 kcal/mol was adopted in calculating energies. With standard options for scaling of variables, the regression analysis was carried out using partial least squares (PLS) method. The cross-validation with Leave-One-Out (LOO) option was carried out to obtain the optimum number of components (ONC).The final model (non-cross-validated conventional analysis) was developed with the optimum number of components. Region focusing is an advanced strategy that improves prediction ability of the initial built CoMFA model. CoMFA region focusing method refines a model by increasing the weights of the lattice points. StDev × coefficient values were used as weights.

cGMP level of CCSMCs = assay: cGMP assay in CCSMCs by ELISA; format: cell-based, rat; conditions: 10 μM, 48 h
Text: (§2) Male Sprague–Dawley (SD) rats (180–220 g) were purchased from Shanghai SLAC Laboratory Animal Co., Ltd. This experiment protocol was approved by the standardizing laboratory animal ethical review of Shanghai University of Traditional Chinese Medicine. After removal of the corpus spongiosum, subcutaneous tissue and deep fascia of penises of SD rats, the corpus cavernosum tissue was cut into small pieces of less than 2mm^3 and digested with 0.5% collagenase I and 20% fetal bovine serum (PFES) in DMEM for 4 h. The cell suspensions were collected by mesh filtration and centrifugation, and cultured in DMEM containing 20% PFES and 1 × antibiotics at 37 °C in a humidified atmosphere with 5% CO2. After 24 h culture, spindle CCSMCs attached to the culture dish. The medium was replaced with DMEM containing 10% PFES when CCSMCs reached 70% confluence.
CCSMCs were seeded in 6-well plate at a density of 100,000/well for 24 h, and then were treated with 10 μM 1 ~ 3 for 48 h. The cells were lysed by 0.1 M hydrochloric acid with 200 μl per well for 20 min incubation, then the supernatant was collected and determined the cGMP content by ELISA.

[3] = system: cytoplasmic calcium in CCSMCs; assay: Fluorescent staining of calcium (Fluo-4AM) in CCSMCs; format: cell-based, rat; conditions: for fluorescence intensity of cytoplasmic calcium in CCSMCs: 10 uM, 30 min, Fluo-4 AM
Text: as §2
CCSMCs were cultured in 6-well plate at a density of 100,000/well for 48 h. Then cells were stained by Fluo-4AM for 30 min prior to […] 1 ~ 3 exposure for 30 min in the presence or absence of 10 μM Rp-8-Br-cGMPS (the protein kinase G inhibitor). After PBS rinse, the cytosolic calcium was observed by fluorescence microscope.

PDE5A1 [4] = target: T1, PDE5A1; assay: CoMSIA 3D-QSAR model prediction of PDE5A1 activity; conditions: EA minus PA
Protocol: as §1
Although CoMSIA is similar to CoMFA, CoMSIA not only computes the steric and electrostatic fields, but also calculates additional hydrophobic, hydrogen-bond donor, and hydrogen-bond acceptor fields. CoMSIA descriptors were calculated with the same lattice box, grid spacing and probe atom as that used for the CoMFA calculations. In CoMSIA analysis, the five different descriptor fields are not totally independent from each other. Given that the size of dataset, we decided to use three of five fields as the descriptors.

PDE5A1 [5] = target: T1, PDE5A1; conditions: converted from literature IC50; cited from earlier work

| SMILES | CoMFA residual (PDE5A1 [2]) | IC50 (PDE5A1 [1]; read-out: PDE5A1 (IC50 ± SD)) | CoMSIA residual (PDE5A1 [4]) | pIC50 (-logIC50), experimental activity (EA) (PDE5A1 [5]) | also measured |
| --- | --- | --- | --- | --- | --- |
| COc1ccc(-c2oc3c(CC=C(C)C)c(OC4OC(CO)C(O)C(O)C4O)cc(O)c3c(=O)c2OC2OC(C)C(O)C(O)C2OC2OC(CO)C(O)C(O)C2O)cc1 (centres unmarked) [Compound 4, epimedin A] |  | 409 ± 31.4 µM |  |  |  |
| COc1ccc(-c2oc3c(CC=C(C)C)c(OC4OC(CO)C(O)C(O)C4O)cc(O)c3c(=O)c2OC2OC(C)C(O)C(O)C2OC2OCC(O)C(O)C2O)cc1 (centres unmarked) [Compound 5, epimedin B] | 0.032 | 358 ± 34.2 µM |  |  |  |
| COc1ccc(-c2oc3c(CC=C(C)C)c(OC4OC(CO)C(O)C(O)C4O)cc(O)c3c(=O)c2OC2OC(C)C(O)C(O)C2OC2OC(C)C(O)C(O)C2O)cc1 (centres unmarked) [Compound 6, epimedin C] |  | 682 µM | 0.037 |  |  |
| COc1ccc(/C=C/C(=O)c2c(OCc3ccccc3)cc(OC)c(OC)c2OC)cc1OC [Compound 12] |  |  |  | 5.229 |  |
| COc1ccc(OC)c(C(=O)/C=C/c2ccc(OC)c(OC)c2)c1 [Compound 13] |  |  |  | 5.155 |  |
| Nc1nc2c(nc(Br)n2[C@@H]2O[C@@H]3COP(O)(=S)O[C@H]3[C@H]2O)c(=O)[nH]1 (some centres unmarked) [Rp-8-Br-cGMPS, reference compound] |  |  |  |  | effect on calcium down-regulation by 1 ~ 3 in CCSMCs ([3]; 10 μM Rp-8-Br-cGMPS together with 1 ~ 3, 30 min): blocked the down-regulated calcium levels |
| CCCc1nn(C)c2c(=O)[nH]c(-c3cc(S(=O)(=O)N4CCN(C)CC4)ccc3OCC)nc12 [Sildenafil, sildenafil] | 0.068 |  |  |  |  |

Further lines, with some results ahead:

| CoMFA residual (PDE5A1 [2]) | IC50 (PDE5A1 [1]; read-out: PDE5A1 (IC50 ± SD)) | CoMSIA residual (PDE5A1 [4]) | SMILES | pIC50 (-logIC50), experimental activity (EA) (PDE5A1 [5]) | also measured |
| --- | --- | --- | --- | --- | --- |
| 0.034 |  |  | COc1ccc(-c2oc3c(CC=C(C)C)c(O[C@@H]4O[C@H](CO)[C@@H](O)[C@H](O)[C@H]4O)cc(O)c3c(=O)c2O[C@@H]2O[C@@H](C)[C@H](O)[C@@H](O)[C@H]2O)cc1 [Compound 1, icariin] |  | IC50 (PDE5A1 [1]; PDE5A1 (IC50 ± SD)): 8.28 µM and 8.27 µM; cGMP level of CCSMCs (cGMP level of CCSMCs): increase cGMP level; fluorescence intensity of cytoplasmic calcium in CCSMCs [3]: decrease cytoplasmic Ca^2+ |
| 0.015 | 3.23 µM |  | COc1ccc(-c2oc3c(CC=C(C)C)c(O)cc(O)c3c(=O)c2OC2OC(C)C(O)C(O)C2OC2OC(C)C(O)C(O)C2O)cc1 (centres unmarked) [Compound 2, 2-O"-rhamnosylicaridide II] |  | cGMP level of CCSMCs (cGMP level of CCSMCs): increase cGMP level; fluorescence intensity of cytoplasmic calcium in CCSMCs [3]: decrease cytoplasmic Ca^2+ |
|  | 5.47 µM and 5.48 µM | 0.013 | COc1ccc(-c2oc3c(CC=C(C)C)c(O)cc(O)c3c(=O)c2O[C@@H]2O[C@@H](C)[C@H](O)[C@@H](O)[C@H]2O)cc1 [Compound 3, baohuoside I] |  | cGMP level of CCSMCs (cGMP level of CCSMCs): increase cGMP level; fluorescence intensity of cytoplasmic calcium in CCSMCs [3]: decrease cytoplasmic Ca^2+ |
| 0.105 |  | 0.058 | COc1ccc(-c2oc3c(CC=C(C)C)c(O)cc(O)c3c(=O)c2O)cc1 [Compound 7] |  |  |
|  |  | 0.000 | COc1ccc(-c2oc3c(CC=C(C)C)c(OCCO)cc(O)c3c(=O)c2OC2OC(C)C(O)C(O)C2O)cc1 (centres unmarked) [Compound 8] | 6.444 |  |
| 0.296 |  | 0.562 | COc1ccc(C(=O)/C=C\c2cc(OC)c(OC)cc2OC)c(OC)c1 [Compound 10] | 5.745 |  |
| 0.06 |  | 0.025 | COc1cccc(/C=C/C(=O)c2c3c(c(OC)c4c2OCO4)CN(C)CC3)c1 [Compound 14] | 5.208 |  |
|  |  | 0.001 | CCCOc1ccccc1-c1nc2n[nH]nc2c(=O)[nH]1 [Compound 17] |  |  |
